According to the supplement of paper PMC10307832:

Tests used:
Experiment in all cases: relative viability (nuclei count vs DMSO), 5 days (fraction); higher = more cells survive
[1] = compound: C1/C(=C\C2=CC=CS2)/C(=O)/C(=C/C3=CC=CS3)/C1 + NC(=O)Nc1cc(-c2cccc(F)c2)sc1C(=O)N[C@H]1CCCNC1 [AZD7762] (partner 0.2 µM)
Outline: (§1)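 Five library-drug doses in √10 steps were combined with a fixed anchor-drug dose, or a single drug was given alone, by pin tool to lung cancer cell lines in 1536-well plates the day after seeding. Nuclei were stained and counted after 5 days. Relative viability is the nuclei count in treated wells over that in vehicle wells, taken as the median of duplicate plates.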

[2] = compound: C1/C(=C\C2=CC=CS2)/C(=O)/C(=C/C3=CC=CS3)/C1 + O=C(CCCCCCC(=O)Nc1ccccc1)NO [Vorinostat] (partner 1 µM)
Outline: as §1

[3] = compound: C1/C(=C\C2=CC=CS2)/C(=O)/C(=C/C3=CC=CS3)/C1 + O=C(c1cc(Cc2n[nH]c(=O)c3ccccc23)ccc1F)N1CCN(C(=O)C2CC2)CC1 [Olaparib] (partner 8 µM)
Outline: as §1

TPCA-1 + Vorinostat = compound: C1=CC(=CC=C1C2=CC(=C(S2)NC(=O)N)C(=O)N)F [TPCA-1] + O=C(CCCCCCC(=O)Nc1ccccc1)NO [Vorinostat] (partner 1 µM)
Outline: as §1

Cell Line | relative viability ([1]; first compound 0.2 µM) | relative viability ([1]; first compound 0.6325 µM) | relative viability ([1]; first compound 2 µM) | relative viability ([1]; first compound 6.325 µM) | relative viability ([1]; first compound 20 µM) | relative viability ([2]; first compound 0.2 µM) | relative viability ([2]; first compound 0.6325 µM) | relative viability ([2]; first compound 2 µM) | relative viability ([2]; first compound 6.325 µM) | relative viability ([2]; first compound 20 µM) | relative viability ([3]; first compound 0.2 µM) | relative viability ([3]; first compound 0.6325 µM) | relative viability ([3]; first compound 2 µM) | relative viability ([3]; first compound 6.325 µM) | relative viability ([3]; first compound 20 µM) | relative viability (TPCA-1 + Vorinostat; first compound 0.04 µM) | relative viability (TPCA-1 + Vorinostat; first compound 0.1265 µM) | relative viability (TPCA-1 + Vorinostat; first compound 0.4 µM) | relative viability (TPCA-1 + Vorinostat; first compound 1.265 µM) | relative viability (TPCA-1 + Vorinostat; first compound 4 µM)
NCI-H596 | 1.12 | 1.12 | 1.13 | 0.659 | 1.02 | 0.532 | 0.469 | 0.609 | 0.612 | 0.727 | 0.674 | 0.727 | 0.767 | 0.596 | 0.665 | 0.64 | 0.613 | 0.696 | 0.668 | 0.616
RERF-LC-KJ | 1.09 | 1.04 | 1.05 | 0.87 | 1.06 | 0.735 | 0.723 | 0.713 | 0.645 | 0.675 | 0.948 | 0.956 | 0.869 | 0.724 | 0.637 | 0.76 | 0.688 | 0.664 | 0.671 | 0.46
NCI-H322M | 0.491 | 0.58 | 0.484 | 0.518 | 0.521 | 0.902 | 0.892 | 1.03 | 0.865 | 0.917 | 0.827 | 0.776 | 0.822 | 0.783 | 0.762 | 0.976 | 0.89 | 0.958 | 0.864 | 0.431
NCI-H1993 | 0.783 | 0.747 | 0.958 | 0.62 | 0.499 | 0.729 | 0.701 | 0.972 | 0.702 | 0.561 | 1.1 | 0.969 | 1.17 | 0.958 | 0.85 | 0.877 | 0.74 | 0.921 | 0.694 | 0.533
NCI-H1437 | 1.14 | 1.2 | 1.19 | 1.03 | 1.1 | 0.91 | 0.853 | 0.837 | 0.701 | 0.866 | 0.667 | 0.618 | 0.634 | 0.563 | 0.617 | 0.921 | 0.867 | 0.897 | 0.819 | 0.784
NCI-H838 | 0.967 | 0.949 | 0.933 | 0.875 | 0.841 | 0.731 | 0.709 | 0.767 | 0.596 | 0.657 | 0.779 | 0.752 | 0.704 | 0.714 | 0.739 | 0.752 | 0.64 | 0.676 | 0.648 | 0.363
NCI-H1666 | 0.877 | 0.86 | 0.968 | 0.793 | 0.815 | 1.09 | 1.02 | 0.874 | 0.893 | 0.928 | 0.76 | 0.769 | 0.77 | 0.69 | 0.708 | 1.08 | 0.966 | 1.02 | 0.988 | 1.1
NCI-H1944 | 0.502 | 0.461 | 0.526 |  | 0.442 | 0.619 | 0.535 | 0.559 |  | 0.528 | 0.435 | 0.385 | 0.392 |  | 0.41 | 0.648 | 0.709 | 0.675 | 0.512 | 0.521
NCI-H1755 | 0.551 | 0.421 | 0.436 | 0.426 | 0.335 | 0.725 | 0.857 | 0.745 | 0.777 | 0.716 | 0.88 | 0.907 | 0.916 | 0.749 | 0.877 | 0.717 | 0.84 | 0.813 | 0.667 | 0.554
NCI-H23 | 0.25 | 0.342 | 0.294 | 0.244 | 0.175 | 0.662 | 0.628 | 0.702 | 0.564 | 0.591 | 0.398 | 0.324 | 0.301 | 0.382 | 0.309 | 0.392 | 0.579 | 0.546 | 0.526 | 0.161
ABC-1 | 1.01 | 1.04 | 0.905 | 0.528 | 1 | 1.17 | 0.964 | 1.5 | 0.724 | 1.24 | 1.02 | 0.984 | 1.11 | 0.842 | 0.779 | 1.4 | 1.14 | 1.38 | 1.29 | 0.926
201T | 0.626 | 0.704 | 0.689 | 0.411 | 0.58 | 0.965 | 0.951 | 1.07 | 0.728 | 0.935 | 0.866 | 0.856 | 0.858 | 0.775 | 0.84 | 1.02 | 0.951 | 0.99 | 0.937 | 0.886
NCI-H1734 | 0.591 | 0.57 | 0.551 | 0.415 | 0.523 | 0.82 | 0.875 | 0.837 | 0.745 | 0.865 | 0.621 | 0.597 | 0.596 | 0.528 | 0.629 | 0.957 | 0.737 | 0.88 | 0.839 | 0.279
NCI-H1355 | 0.69 | 0.835 | 0.804 | 0.559 | 0.622 | 0.664 | 0.627 | 0.705 | 0.598 | 0.587 | 0.742 | 0.76 | 0.727 | 0.657 | 0.736 | 0.735 | 0.603 | 0.611 | 0.582 | 0.553
NCI-H1915 | 0.73 | 0.67 | 0.689 | 0.642 | 0.677 | 0.568 | 0.546 | 0.551 | 0.433 | 0.528 | 0.264 | 0.247 | 0.307 | 0.241 | 0.26 | 0.541 | 0.5 | 0.537 | 0.392 | 0.386
BEN | 0.739 | 0.635 | 0.774 | 0.643 | 0.679 | 0.64 | 0.537 | 0.661 | 0.566 | 0.535 | 1.15 | 1.03 | 1.19 | 1.04 | 0.944 | 0.56 | 0.543 | 0.624 | 0.634 | 0.441
NCI-H3122 | 0.983 | 0.919 | 0.968 | 0.956 | 0.967 | 1.08 | 1.08 | 0.907 | 0.639 | 0.708 | 0.655 | 0.645 | 0.648 | 0.537 | 0.578 | 1.34 | 0.814 | 0.955 | 1 | 0.897
